# Where a name gives a salt, the structure may show the parent alone.
# Legend:
# TNF-α = assay: Induction of TNF-α using fresh human PBMCs; assay type: cell-based; settings: PBMC, 24 hr, relative to 2 μM resiquimod control, read-out: mean pEC50 for induction of TNF-α (converted)
# Experimental: (§1) Assay for the Induction of Interferon-α and TNF-α Using Fresh Human Peripheral Blood Mononuclear Cells (PBMCs)
# (§2) Compounds were dissolved and serially diluted in DMSO to give 100× the required concentration range using a Biomek 2000. 1 ul of test compound was transferred into 96-well tissue culture plates using a Biomek FX. Each compound was assayed in duplicate for each donor. Each plate contained a dilution series of the TLR7/8 agonist resiquimod as standard and Column 11 contained 1 μl of 200 μM resiquimod (giving a 2 μM final concentration, used to define the approximate maximal response to resiquimod).
# (§3) Blood samples from two human donors were collected into sodium heparin (10 U/ml). 25 ml volumes of whole blood were overlaid onto 15 mls Histopaque in Leucosep tubes which were centrifuged at 800 g for 20 min and the band at the plasma/histopaque interface carefully removed. The collected cells were centrifuged at 2500 rpm for 10 min and the pellet resuspended in 10 ml of media (RPMI 1640 (Low endotoxin) supplemented with 10% v/v foetal calf serum (FCS, low endotoxin) 100 U/ml penicillin G, 100 μg/ml streptomycin, 10 mM L-glutamine and 1× non-essential amino acids). A 1:20 dilution of the cells was prepared using trypan blue & the cells counted using a haemocytometer. The PBMCs were diluted to give a final concentration of 2×10^6/ml and 100 ul of this cells suspension was added to wells containing 1 μl of diluted test compound.
# (§4) The cell preparations were incubated for 24 hr (37° C., 95% air, 5% CO2) after which a sample of the supernatant was removed using the Biomek FX and assayed for both IFN-α and TNF-α using the MSD (Mesoscale Discovery) electrochemiluminescence assay platform. The IFN-α assay was carried out similarly to that described above. The TNF-α assay was carried out as per kit instructions (Cat No K111 BHB).
# (§5) Cytokine released was expressed as a percentage of the 2 μM resiquimod control (column 11). This percentage was plotted against compound concentration and the pEC50 for the response determined by non-linear least squares curve fitting. For the IFN-α responses generally a 4 parameter logistic model was selected. For the TNF responses where a clear maximum response was obtained (i.e. a well defined plateau in the response was observed) then a 4 parameter model was generally used. If the upper asymptote of the curve wasn't well defined then the curve fitting was generally constrained to a maximal response of 100% (i.e., to the response to 2 μM resiquimod) or to the response of the highest concentration tested if this was greater than the resiquimod response. Some curves were bell shaped for one or both cytokines and the cytokine data on the down slope of the bell shaped response (i.e. concentrations above those giving the maximal response) were generally excluded from the fit, usually with the exception of the concentration immediately above the peak response. Curve fitting thus concentrated on the up slope of the dose response curve.
# Interferon-α [1] = assay: Induction of Interferon-α using cryopreserved human PBMCs; assay type: cell-based; settings: PBMC, 24 h, normalised to 1 uM resiquimod, read-out: mean pEC50 for induction of Interferon-α (converted)
# Experimental: Assay for the Induction of Interferon-α using Cryopreserved Human Peripheral Blood Mononuclear Cells (PBMCs)
# Compounds were dissolved in DMSO. Serial 2-fold dilutions with DMSO were prepared and 0.25 μl dispensed into 384-well clear Greiner polypropylene plates.
# Blood samples of up to 200 ml were obtained from healthy human donors. Whole blood in 25 ml volumes was overlaid onto 15 ml Ficoll gradients in Leucosep tubes, and centrifuged at 1000 g for 20 min. Cells in the band at the plasma/histopaque interface were carefully removed and washed twice with PBS (centrifuged at 400 g for 5 min to harvest). The final pellet was resuspended in freezing medium (90% Heat-inactivated serum, 10% DMSO) to a cell concentration of 4×10^7 cells/ml. The resuspended cells were then cryopreserved (frozen) using a rate controlled freezer, and stored at −140° C. for up to 4 months.
# Incubation and Assay for Interferon-α
# Immediately prior to assay, vials of cryopreserved (frozen) PBMCs were thawed rapidly in a water bath at 37° C. A 1:10 dilution of the cells in trypan blue was prepared and counted. The PBMCs were then diluted in growth media [RPMI 1640 containing 10% fetal calf serum (invitrogen), Penicillin+Streptavidin (Gibco cat. # 25030-024, 1:50), L-Glutamine 2 mM, and 1000 units/ml recombinant human IFN-gamma (Preprotech catalogue #300-02)] to a density of 1×10^6 cells/ml, and 50 ul/well dispensed to 384-well clear Greiner polypropylene plates containing 0.25 μl DMSO or test compound in 0.25 μl DMSO. […] Plates were incubated for 24 h at 37° C. in 5% CO2.
# A multi-isoform immunoassay was used to quantify IFN-α in PBMC supernatants. Rabbit polyclonal antibody against human IFN-α (catalogue number 31101, Stratech Scientific) was diluted 1:10000 in assay buffer (RPMI 1640 containing 10% fetal calf serum, Invitrogen) and 20 μl was added to each well of an MSD (Meso-Scale Discovery) single small-spot 384-well GAR (goat anti-rabbit antibody coated) plate. The plate was incubated for 1 h at room temperature with vigorous shaking. Following three washes with PBS, 20 μl of cell supernatant were added to each well of the plate. The plate was then incubated for 1 h at room temperature with vigorous shaking. A pair of monoclonal antibodies to IFN-α (catalogue numbers 21100 and 21112, Stratech Scientific) were labelled with sulfo-TAG (MSD), diluted 1:1000 in assay buffer and 20 μl added to each well of the plate. The plate was further incubated for 1 h at room temperature with vigorous shaking. Following three washes with PBS, 30 μl of ×2 T buffer (MSD) was added to each well and the plate was read on an MSD Sector 6000 plate reader.
# Data were normalised to internal plate controls of 1 uM resiquimod (n=16) and DMSO (n=16). pEC50 values were derived by 4-parameter curve fit with IRLS in ActivityBase, from 11-point, two-fold serial dilution of test compounds.
# Interferon-α [2] = assay: Induction of Interferon-α using fresh human PBMCs; assay type: cell-based; settings: PBMC, 24 hr, relative to 2 μM resiquimod control, read-out: mean pEC50 for induction of IFN-α (converted)
# Experimental: as §1, §2, §3, §4, §5
# IL-13 = assay: Allergen-driven cytokine assay using fresh human PBMCs from atopic volunteers (IL-13); assay type: cell-based; settings: at 0.2 μM; atopic donor PBMCs with Timothy grass antigen, up to 6 days
# Experimental: (§6) Allergen-Driven Cytokine Assay Using Fresh Human Peripheral Blood Mononuclear Cells (PBMCs) from Atopic Volunteers
# (§7) An assay based on co-culture of atopic human donor derived peripheral blood mononuclear cells (PBMCs) with allergen and test compounds was developed. After 5-6 days culture, cell supernatants were assayed for a range of cytokines.
# (§8) Compounds were dissolved in DMSO, then serially diluted in growth medium (RPMI 1640 medium supplemented with 100 U/ml penicillin G, 100 μg/ml streptomycin, 10 mM L-glutamine) to give 4× the required concentration range in the presence of 0.04% DMSO. Each compound was assayed in triplicate at all concentrations.
# (§9) Defibrinated human blood from volunteers known to be allergic to Timothy grass was centrifuged at 2500 rpm for 15 minutes. The upper layer of serum was collected and heat-inactivated at 56° C. for 30 minutes (HI-autologous serum). The lower layer of cells was resuspended in 50 ml PBS (+Ca +Mg), 25 ml diluted blood were overlaid onto 20 ml Lymphoprep in 50 ml tubes then centrifuged at 2500 rpm for 20 minutes at RT. The band at the serum/Lymphoprep interface was carefully removed. […]
# (§10) Plates were incubated at 37° C. in 5% CO2 for up to 6 days. […] Cytokines and chemokines in supernatants were detected using Meso Scale Discovery 10 spot plates for Human TH1/Th2 cytokines.
# IL-5 = assay: Allergen-driven cytokine assay using fresh human PBMCs from atopic volunteers (IL-5); assay type: cell-based; settings: at 0.04 μM; atopic donor PBMCs with Timothy grass antigen, up to 6 days
# Experimental: as §6, §7, §8, §9, §10
# Interferon-α [3] = assay: Induction of Interferon-α following intranasal dosing in the mouse; assay type: in vivo; settings: female BALB/c mice, 2 hours after dosing, ELISA
# Experimental: Assay for the Induction of Interferon-α Following Intranasal Dosing in the Mouse.
# Example 46 was dissolved in 0.2% Tween 80 in saline and administered intranasally (5 μl in total between the nostrils) to female BALB/c mice (n=6) under general anaesthesia. Animals were euthanased 2 hours after dosing and a terminal blood sample was taken and serum levels of Interferon-α was measured using an ELISA assay. Mean serum levels of Interferon-α of 1253 pg/ml were measured. No Interferon-α was detected in vehicle treated controls.
EC50 (TNF-α),EC50 (Interferon-α [2]),SMILES,EC50 (Interferon-α [1]),reduction of IL-13 production compared to the allergen control (IL-13),reduction of IL-5 production compared to the allergen control (IL-5),mean serum levels of Interferon-α (Interferon-α [3])
> 1 µM,< 0.01 µM,"CCCCOc1nc(N)c2[nH]c(=O)n(CCCCN3CCN(C(C)C)CC3)c2n1 [Example 29, 6-Amino-2-(butyloxy)-9-{4-[4-(1-methylethyl)-1-piperazinyl]butyl}-7,9-dihydro-8H-purin-8-one]",< 3.16 µM,,,
> 1 µM,< 0.01 µM,"CCCCOc1nc(N)c2[nH]c(=O)n(CCCCN3CCN(C(C)(C)C)CC3)c2n1 [Example 32, 6-Amino-2-(butyloxy)-9-{4-[4-(1,1-dimethylethyl)-1-piperazinyl]butyl}-7,9-dihydro-8H-purin-8-one]",< 3.16 µM,,,
> 1 µM,< 0.01 µM,"CCCCOc1nc(N)c2[nH]c(=O)n(CCCCCCN3CCNCC3)c2n1 [Example 54, 6-Amino-2-(butyloxy)-9-[6-(1-piperazinyl)hexyl]-7,9-dihydro-8H-purin-8-one]",< 3.16 µM,,,
> 3.16 µM,< 0.1 µM,"CCCCNc1nc(N)c2[nH]c(=O)n(CCCCN3CCN(C(C)(C)C)CC3)c2n1 [Example 41, 6-Amino-2-(butylamino)-9-{4-[4-(1,1-dimethylethyl)-1-piperazinyl]butyl}-7,9-dihydro-8H-purin-8-one]",< 3.16 µM,,,
> 1 µM,< 0.001 µM,"CCCCOc1nc(N)c2[nH]c(=O)n(CCCCCCN3CCN(C(C)(C)C)CC3)c2n1 [Example 57, 6-Amino-2-(butyloxy)-9-{6-[4-(1,1-dimethylethyl)-1-piperazinyl]hexyl}-7,9-dihydro-8H-purin-8-one]",< 3.16 µM,,,
> 1 µM,< 0.01 µM,"CCCCOc1nc(N)c2[nH]c(=O)n(CCCCCN3CCN(C(C)C)CC3)c2n1 [Example 48, 6-Amino-2-(butyloxy)-9-{5-[4-(1-methylethyl)-1-piperazinyl]pentyl}-7,9-dihydro-8H-purin-8-one]",< 3.16 µM,,,

# The next lines start with the compound.
SMILES,EC50 (TNF-α),EC50 (Interferon-α [2]),EC50 (Interferon-α [1]),reduction of IL-13 production compared to the allergen control (IL-13),reduction of IL-5 production compared to the allergen control (IL-5),mean serum levels of Interferon-α (Interferon-α [3])
"CCCCOc1nc(N)c2[nH]c(=O)n(CCCCN3CCN(CC)CC3)c2n1 [Example 27, 6-Amino-2-(butyloxy)-9-[4-(4-ethyl-1-piperazinyl)butyl]-7,9-dihydro-8H-burin-8-one]",> 1 µM,< 0.01 µM,< 3.16 µM,,,
"CCC[C@H](C)Oc1nc(N)c2[nH]c(=O)n(CCCCCN3CCN(C(C)C)CC3)c2n1 [Example 52, 6-Amino-2-{[(1S)-1-methylbutyl]oxy}-9-{5-[4-(1-methylethyl)-1-piperazinyl]pentyl}-7,9-dihydro-8H-purin-8-one]",,,< 3.16 µM,> 50%,> 50%,
"CCCCOc1nc(N)c2[nH]c(=O)n(CCCN3CCN(C)CC3)c2n1 [Example 6, 6-Amino-2-(butyloxy)-9-[3-(4-methyl-1-piperazinyl)propyl]-7,9-dihydro-8H-purin-8-one]",> 3.16 µM,< 0.1 µM,< 3.16 µM,,,
"CCCCOc1nc(N)c2[nH]c(=O)n(CCCCCN3CCN(C)CC3)c2n1 [Example 46, 6-Amino-2-(butyloxy)-9-[5-(4-methyl-1-piperazinyl)pentyl]-7,9-dihydro-8H-purin-8-one]",> 1 µM,< 0.001 µM,< 3.16 µM,,,1253 pg/mL
"CCCCOc1nc(N)c2[nH]c(=O)n(CCN3CCNCC3)c2n1 [Example 1, 6-Amino-2-(butyloxy)-9-[2-(1-piperazinyl)ethyl]-7,9-dihydro-8H-purin-8-one dihydrochloride salt]",> 3.16 µM,< 0.1 µM,< 3.16 µM,,,
"CCCCNc1nc(N)c2[nH]c(=O)n(CCCCN3CCN(CC)CC3)c2n1 [Example 36, 6-Amino-2-(butylamino)-9-[4-(4-ethyl-1-piperazinyl)butyl]-7,9-dihydro-8H-purin-8-one]",,,< 3.16 µM,,,
"CCCCOc1nc(N)c2[nH]c(=O)n(CCCCN3CCN(C)CC3)c2n1 [Example 26, 6-Amino-2-(butyloxy)-9-[4-(4-methyl-1-piperazinyl)butyl]-7,9-dihydro-8H-burin-8-one]",> 3.16 µM,< 0.1 µM,< 3.16 µM,,,

# — patent publication US20110135671A1, “PURINE DERIVATIVES FOR USE IN THE TREATMENT OF ALLERGIC, INFLAMMATORY AND INFECTIOUS DISEASES” (GLAXOSMITHKLINE LLC, priority 2008, published 2011)
